{"source": "patent US20070149525A1", "about": "“Methods of treating amyloidosis using aryl-cyclopropyl derivative aspartyl protease inhibitors” (priority 2005, published 2007)", "test": "In vitro permeability across MDCK cell monolayer", "type": "in vitro ADME, Canine", "conditions": "dog, test compound 5 μM, 2 h at 37° C., apical to basolateral, read-out: Permeability Forward A > B", "method": "Compounds were evaluated for permeability across a monolayer of Madin-Darby Canine Kidney (MDCK) cells in a transwell device following culturing for 4 days. […] A 0.5 mL of cell suspension (400,000 cells/mL) was placed on membrane and a 1.5 mL media in the bottom wells on day 1. On day 2 and day 3, cells were fed with new media. […] Media was removed from upper chambers and filled with mHBSS with or without CspA, and incubated 30 min at 37° C. with light shaking. Donor chambers were emptied, and filled with test compound at 5 μM in mHBSS. […] Plates were incubated for 2 h at 37° C. with shaking. After 2 h, both the donor and receiver wells were sampled. The bottom chambers were read in a fluorometer to assess LY leakage, and then the media from all wells were assayed by LC/MS/MS to determine compound levels.", "note": "Like-named read-outs stand apart in the source and are kept apart here.", "data": [{"smiles": "CC(=O)NC(Cc1cc(F)cc(F)c1)C(O)CNC1(n2cccn2)CC1Cc1ccccc1", "note": "(single isomer, unassigned) [23.30 Diastereomer A, N-(4-(2-benzyl-1-(1H-pyrazol-1-yl)cyclopropylamino)-1-(3,5-difluorophenyl)-3-hydroxybutan-2-yl)acetamide]", "values": [{"measurement": "Papp A→B at 2 h, 5 μM", "setting": "MDCK", "result": 8.48, "unit": "×10⁻⁶ cm/s"}]}, {"smiles": "CC(C)(C)Cc1cc(C2(NCC(O)C(Cc3cc(F)cc(F)c3)NC(=O)CF)CC2)on1", "note": "(stereo not drawn) [Example 23.10, N-(4-(1-(3-neopentylisoxazol-5-yl)cyclopropylamino)-1-(3,5-difluorophenyl)-3-hydroxybutan-2-yl)-2-fluoroacetamide]", "values": [{"measurement": "Papp A→B at 2 h, 5 μM", "result": 8.26, "unit": "×10⁻⁶ cm/s"}]}, {"smiles": "CC(=O)NC(Cc1cc(F)cc(F)c1)C(O)CNC1(n2cccn2)C2CCCC21", "note": "(stereo not drawn) [Example 23.14, N-(4-(6-(1H-pyrazol-1-yl)bicyclo[3.1.0]hexan-6-ylamino)-1-(3,5-difluorophenyl)-3-hydroxybutan-2-yl)acetamide]", "values": [{"measurement": "Papp A→B at 2 h, 5 μM", "setting": "MDCK", "result": 20.4, "unit": "×10⁻⁶ cm/s"}]}, {"smiles": "CC(=O)NC(Cc1cc(F)cc(F)c1)C(O)CNC1(c2cc(-n3cccn3)cs2)CC1", "note": "(stereo not drawn) [Example 23.15, N-(4-(1-(4-(1H-pyrazol-1-yl)thiophen-2-yl)cyclopropylamino)-1-(3,5-difluorophenyl)-3-hydroxybutan-2-yl)acetamide]", "values": [{"measurement": "Papp A→B at 2 h, 5 μM", "setting": "MDCK", "result": 12.1, "unit": "×10⁻⁶ cm/s"}]}, {"smiles": "CC(=O)NC(Cc1cc(F)cc(F)c1)C(O)CNC1(c2cncc(CC(C)(C)C)c2)CC1", "note": "(stereo not drawn) [Example 23.16, N-(1-(3,5-difluorophenyl)-3-hydroxy-4-(1-(5-neopentylpyridin-3-yl)cyclopropylamino)butan-2-yl)acetamide]", "values": [{"measurement": "Papp A→B at 2 h, 5 μM", "setting": "MDCK", "result": 13.5, "unit": "×10⁻⁶ cm/s"}]}, {"smiles": "CC(=O)NC(Cc1cc(F)cc(F)c1)C(O)CNC1(c2csc(CC(C)(C)C)n2)CC1", "note": "(stereo not drawn) [Example 23.19, N-(4-(1-(2-neopentylthiazol-4-yl)cyclopropylanimo)1-(3,5-difluorophenyl)-3-hydroxybutan-2-yl)acetamide]", "values": [{"measurement": "Papp A→B at 2 h, 5 μM", "result": 26.7, "unit": "×10⁻⁶ cm/s"}]}, {"smiles": "CC(=O)NC(Cc1cc(F)cc(F)c1)C(O)CNC1(c2cn(-c3ccsc3)nn2)CC1", "note": "(stereo not drawn) [Example 23.20, N-(1-(3,5-difluorophenyl)-3-hydroxy-4-(1-(1-(thiophen-3-yl)-1H-1,2,3-triazol-4-yl)cyclopropylamino)butan-2-yl)acetamide]", "values": [{"measurement": "Papp A→B at 2 h, 5 μM", "setting": "MDCK", "result": 12.1, "unit": "×10⁻⁶ cm/s"}]}, {"smiles": "CC(=O)NC(Cc1cc(F)cc(F)c1)C(O)CNC1(c2csc(C(C)(C)C)c2)CC1", "note": "(stereo not drawn) [Example 23.21, N-(4-(1-(5-tert-butylthiophen-3-yl)cyclopropylamino)-1-(3,5-difluorophenyl)-3-hydroxybutan-2-yl)acetamide]", "values": [{"measurement": "Papp A→B at 2 h, 5 μM", "setting": "MDCK", "result": 10, "unit": "×10⁻⁶ cm/s"}]}, {"smiles": "CC(=O)NC(Cc1cc(F)cc(F)c1)C(O)CNC1(c2cccc(-n3cccn3)c2)CC1C", "note": "(stereo not drawn) [Example 23.23, N-(4-(1-(3-(1H-pyrazol-1-yl)phenyl)-2-methylcyclopropylamino)-1-(3,5-difluorophenyl)-3-hydroxybutan-2-yl)acetamide]", "values": [{"measurement": "Papp A→B at 2 h, 5 μM", "setting": "MDCK", "result": 11.1, "unit": "×10⁻⁶ cm/s"}]}, {"smiles": "CC(=O)NC(Cc1cc(F)cc(F)c1)C(O)CNC1(c2cccc(C3CCOC3)c2)CC1", "note": "(stereo not drawn) [Example 23.24, N-(1-(3,5-difluorophenyl)-3-hydroxy-4-(1-(3-(tetrahydrofuran-3-yl)phenyl)cyclopropylamino)butan-2-yl)acetamide]", "values": [{"measurement": "Papp A→B at 2 h, 5 μM", "setting": "MDCK", "result": 13.2, "unit": "×10⁻⁶ cm/s"}]}, {"smiles": "C=C(c1cccc(C2(NCC(O)C(Cc3cc(F)cc(F)c3)NC(C)=O)CC2)c1)C(F)(F)F", "note": "(stereo not drawn) [Example 23.26, N-(1-(3,5-difluorophenyl)-3-hydroxy-4-(1-(3-(3,3,3-trifluoroprop-1-en-2-yl)phenyl)cyclopropylamino)butan-2-yl)acetamide]", "values": [{"measurement": "Papp A→B at 2 h, 5 μM", "setting": "MDCK", "result": 10.3, "unit": "×10⁻⁶ cm/s"}]}, {"smiles": "CC(=O)NC(Cc1cc(F)cc(F)c1)C(O)CNC1(c2cncc(-n3cccn3)c2)CC1", "note": "(stereo not drawn) [Example 23.29, N-(4-(1-(5-(1H-pyrazol-1-yl)pyridin-3-yl)cyclopropylamino)-1-(3,5-difluorophenyl)-3-hydroxybutan-2-yl)acetamide]", "values": [{"measurement": "Papp A→B at 2 h, 5 μM", "setting": "MDCK", "result": 8.62, "unit": "×10⁻⁶ cm/s"}]}, {"smiles": "CC(=O)NC(Cc1cc(F)cc(F)c1)C(O)CNC1(c2cccc(C3CC=CCO3)c2)CC1", "note": "(stereo not drawn) [Example 23.31, N-(1-(3,5-difluorophenyl)-4-(1-(3-(3,6-dihydro-2H-pyran-2-yl)phenyl)cyclopropylamino)-3-hydroxybutan-2-yl)acetamide]", "values": [{"measurement": "Papp A→B at 2 h, 5 μM", "setting": "MDCK", "result": 10.7, "unit": "×10⁻⁶ cm/s"}]}, {"smiles": "CC(=O)NC(Cc1cc(F)cc(F)c1)C(O)CNC1(c2cccc(N3CCOCC3)c2)CC1", "note": "(stereo not drawn) [Example 23.32, N-(1-(3,5-difluorophenyl)-3-hydroxy-4-(1-(3-morpholinophenyl)cyclopropylamino)butan-2-yl)acetamide]", "values": [{"measurement": "Papp A→B at 2 h, 5 μM", "setting": "MDCK", "result": 12.1, "unit": "×10⁻⁶ cm/s"}]}, {"smiles": "CC(=O)NC(Cc1cc(F)cc(F)c1)C(O)CNC1(c2cccc(C3CCOCOC3)c2)CC1", "note": "(stereo not drawn) [Example 23.34, N-(4-(1-(3-(1,3-dioxepan-5-yl)phenyl)cyclopropylamino)-1-(3,5-difluorophenyl)-3-hydroxybutan-2-yl)acetamide]", "values": [{"measurement": "Papp A→B at 2 h, 5 μM", "setting": "MDCK", "result": 12.1, "unit": "×10⁻⁶ cm/s"}]}, {"smiles": "CC(=O)NC(Cc1cc(F)cc(F)c1)C(O)CNC1(c2c(F)ccc(-n3cccn3)c2F)CC1", "note": "(stereo not drawn) [Example 23.35, N-(4-(1-(2,6-difluoro-3-(1H-pyrazol-1-yl)phenyl)cyclopropylamino)-1-(3,5-difluorophenyl)-3-hydroxybutan-2-yl)acetamide]", "values": [{"measurement": "Papp A→B at 2 h, 5 μM", "setting": "MDCK", "result": 19.4, "unit": "×10⁻⁶ cm/s"}]}, {"smiles": "CC(=O)NC(Cc1cc(F)cc(F)c1)C(O)CNC1(c2nc(CC(C)(C)C)cs2)CC1", "note": "(stereo not drawn) [Example 23.36, N-(1-(3,5-difluorophenyl)-3-hydroxy-4-(1-(4-neopentylthiazol-2-yl)cyclopropylamino)butan-2-yl)acetamide]", "values": [{"measurement": "Papp A→B at 2 h, 5 μM", "result": 11.3, "unit": "×10⁻⁶ cm/s"}]}, {"smiles": "CC(=O)NC(Cc1cc(F)cc(F)c1)C(O)CNC1(c2cnn(C(C)(C)C)c2)CC1", "note": "(stereo not drawn) [Example 23.37, N-(4-(1-(1-tert-butyl-1H-pyrazol-4-yl)cyclopropylamino)-1-(3,5-difluorophenyl)-3-hydroxybutan-2-yl)acetamide]", "values": [{"measurement": "Papp A→B at 2 h, 5 μM", "setting": "MDCK", "result": 7.11, "unit": "×10⁻⁶ cm/s"}]}, {"smiles": "O=C(Cc1ccccc1)NC(Cc1cc(F)cc(F)c1)C(O)CNC1(c2cccc(-n3cccn3)c2)CC1", "note": "(stereo not drawn) [Example 23.38, N-(4-(1-(3-(1H-pyrazol-1-yl)phenyl)cyclopropylamino)-1-(3,5-difluorophenyl)-3-hydroxybutan-2-yl)-2-phenylacetamide]", "values": [{"measurement": "Papp A→B at 2 h, 5 μM", "setting": "MDCK", "result": 22.1, "unit": "×10⁻⁶ cm/s"}]}, {"smiles": "COCC(=O)NC(Cc1cc(F)cc(F)c1)C(O)CNC1(c2cccc(-n3cccn3)c2)CC1", "note": "(stereo not drawn) [Example 23.40, N-(4-(1-(3-(1H-pyrazol-1-yl)phenyl)cyclopropylamino)-1-(3,5-difluorophenyl)-3-hydroxybutan-2-yl)-2-methoxyacetamide]", "values": [{"measurement": "Papp A→B at 2 h, 5 μM", "setting": "MDCK", "result": 12.9, "unit": "×10⁻⁶ cm/s"}]}, {"smiles": "CCOCC(=O)NC(Cc1cc(F)cc(F)c1)C(O)CNC1(c2cccc(-n3cccn3)c2)CC1", "note": "(stereo not drawn) [Example 23.41, N-(4-(1-(3-(1H-pyrazol-1-yl)phenyl)cyclopropylamino)-1-(3,5-difluorophenyl)-3-hydroxybutan-2-yl)-2-ethoxyacetamide]", "values": [{"measurement": "Papp A→B at 2 h, 5 μM", "setting": "MDCK", "result": 9.86, "unit": "×10⁻⁶ cm/s"}]}, {"smiles": "COCCOCC(=O)NC(Cc1cc(F)cc(F)c1)C(O)CNC1(c2cccc(-n3cccn3)c2)CC1", "note": "(stereo not drawn) [Example 23.44, N-(4-(1-(3-(1H-pyrazol-1-yl)phenyl)cyclopropylamino)-1-(3,5-difluorophenyl)-3-hydroxybutan-2-yl)-2-(2-methoxyethoxy)acetamide]", "values": [{"measurement": "Papp A→B at 2 h, 5 μM", "setting": "MDCK", "result": 13.3, "unit": "×10⁻⁶ cm/s"}]}, {"smiles": "COC(=O)NC(Cc1cc(F)cc(F)c1)C(O)CNC1(c2cccc(-n3cccn3)c2)CC1", "note": "(stereo not drawn) [Example 23.45, methyl 4-(1-(3-(1H-pyrazol-1-yl)phenyl)cyclopropylamino)-1-(3,5-difluorophenyl)-3-hydroxybutan-2-ylcarbamate]", "values": [{"measurement": "Papp A→B at 2 h, 5 μM", "setting": "MDCK", "result": 17, "unit": "×10⁻⁶ cm/s"}]}, {"smiles": "CC(=O)NC(Cc1cc(F)cc(F)c1)C(O)CNC1(c2cccc(N3CCSCC3)c2)CC1", "note": "(stereo not drawn) [Example 23.48, N-(1-(3,5-difluorophenyl)-3-hydroxy-4-(1-(3-thiomorpholinophenyl)cyclopropylamino)butan-2-yl)acetamide]", "values": [{"measurement": "Papp A→B at 2 h, 5 μM", "setting": "MDCK", "result": 10.9, "unit": "×10⁻⁶ cm/s"}]}, {"smiles": "Cc1cc(CC(=O)NC(Cc2cc(F)cc(F)c2)C(O)CNC2(c3cccc(-n4cccn4)c3)CC2)no1", "note": "(stereo not drawn) [Example 23.49, N-(4-(1-(3-(1H-pyrazol-1-yl)phenyl)cyclopropylamino)-1-(3,5-difluorophenyl)-3-hydroxybutan-2-yl)-2-(5-methylisoxazol-3-yl)acetamide]", "values": [{"measurement": "Papp A→B at 2 h, 5 μM", "setting": "MDCK", "result": 10.4, "unit": "×10⁻⁶ cm/s"}]}, {"smiles": "CC(=O)NC(Cc1cc(F)cc(F)c1)C(O)CNC1(c2cccc(C(C)(C)C(F)F)c2)CC1", "note": "(stereo not drawn) [Example 23.50, N-(4-(1-(3-(1,1-difluoro-2-methylpropan-2-yl)phenyl)cyclopropylamino)-1-(3,5-difluorophenyl)-3-hydroxybutan-2-yl)acetamide]", "values": [{"measurement": "Papp A→B at 2 h, 5 μM", "setting": "MDCK", "result": 12.8, "unit": "×10⁻⁶ cm/s"}]}, {"smiles": "CC(=O)NC(Cc1cc(F)cc(F)c1)C(O)CNC1(c2cccc(C(F)C(C)(C)F)c2)CC1", "note": "(stereo not drawn) [Example 23.51, N-(4-(1-(3-(1,2-difluoro-2-methylpropyl)phenyl)cyclopropylamino)-1-(3,5-difluorophenyl)-3-hydroxybutan-2-yl)acetamide]", "values": [{"measurement": "Papp A→B at 2 h, 5 μM", "setting": "MDCK", "result": 12.7, "unit": "×10⁻⁶ cm/s"}]}, {"smiles": "COCC(C)(C)c1cccc(C2(NCC(O)C(Cc3cc(F)cc(F)c3)NC(C)=O)CC2)c1", "note": "(stereo not drawn) [Example 23.52, N-(1-(3,5-difluorophenyl)-3-hydroxy-4-(1-(3-(1-methoxy-2-methylpropan-2-yl)phenyl)cyclopropylamino)butan-2-yl)acetamide]", "values": [{"measurement": "Papp A→B at 2 h, 5 μM", "setting": "MDCK", "result": 14.7, "unit": "×10⁻⁶ cm/s"}]}, {"smiles": "CC(=O)NC(Cc1cc(F)cc(F)c1)C(O)CNC1(c2cccc(C3COCO3)c2)CC1", "note": "(stereo not drawn) [Example 23.53, N-(4-(1-(3-(1,3-dioxolan-4-yl)phenyl)cyclopropylamino)-1-(3,5-difluorophenyl)-3-hydroxybutan-2-yl)acetamide]", "values": [{"measurement": "Papp A→B at 2 h, 5 μM", "setting": "MDCK", "result": 12.7, "unit": "×10⁻⁶ cm/s"}]}, {"smiles": "CC(=O)NC(Cc1cc(F)cc(F)c1)C(O)CNC1(c2ncc(C(C)(C)C)o2)CC1", "note": "(stereo not drawn) [Example 23.56, N-(4-(1-(5-tert-butyloxazol-2-yl)cyclopropylamino)-1-(3,5-difluorophenyl)-3-hydroxybutan-2-yl)acetamide]", "values": [{"measurement": "Papp A→B at 2 h, 5 μM", "setting": "MDCK", "result": 20.4, "unit": "×10⁻⁶ cm/s"}]}]}
